# Tests used:
# L1210 [1] = test: Cytotoxicity against mouse L1210 cells at 0.15 ug/disk by corbett disk diffusion assay; format: functional
# [2] = Cytotoxicity against mouse Panc03 cells at 1.5 ug/disk by corbett disk diffusion assay; format: functional
# L1210 [3] = test: Cytotoxicity against mouse L1210 cells at 1.5 ug/disk by corbett disk diffusion assay; format: functional
# MC-38 [4] = test: Cytotoxicity against mouse C38 cells at 1.5 ug/disk by corbett disk diffusion assay; format: functional
# KB = test: Cytotoxicity against human KB cells; format: functional, cell-based
# L1210 [5] = test: Cytotoxicity against mouse L1210 cells at 100 ug/disk by corbett disk diffusion assay; format: functional
# MC-38 [6] = test: Cytotoxicity against mouse C38 cells at 100 ug/disk by corbett disk diffusion assay; format: functional
# [7] = Cytotoxicity against human H116 cells at 100 ug/disk by corbett disk diffusion assay; format: functional
# L1210 [8] = test: Cytotoxicity against mouse L1210 cells at 200 ug/disk by corbett disk diffusion assay; format: functional
# MC-38 [9] = test: Cytotoxicity against mouse C38 cells at 200 ug/disk by corbett disk diffusion assay; format: functional
# [10] = Cytotoxicity against human H116 cells at 200 ug/disk by corbett disk diffusion assay; format: functional
# L1210 [11] = test: Cytotoxicity against mouse L1210 cells at 5 ug/disk by corbett disk diffusion assay; format: functional
# MC-38 [12] = test: Cytotoxicity against mouse C38 cells at 5 ug/disk by corbett disk diffusion assay; format: functional
# [13] = Cytotoxicity against human H116 cells at 5 ug/disk by corbett disk diffusion assay; format: functional
# L1210 [14] = test: Cytotoxicity against mouse L1210 cells at 10 ug/disk by corbett disk diffusion assay; format: functional
# MC-38 [15] = test: Cytotoxicity against mouse C38 cells at 10 ug/disk by corbett disk diffusion assay; format: functional
# [16] = Cytotoxicity against human H116 cells at 10 ug/disk by corbett disk diffusion assay; format: functional
smiles,measurement,setting,value
Nc1ccn([C@@H]2O[C@H](CO)[C@@H](O)[C@@H]2O)c(=O)n1 [CYTARABINE],Activity,L1210 [1],550 Zone units
same,Activity,[2],0 Zone units
O=c1[nH]cc(F)c(=O)[nH]1 [FLUOROURACIL],Activity,L1210 [3],0 Zone units
same,Activity,MC-38 [4],800 Zone units
CC[C@H](C)[C@@H]1NC(=O)c2csc(n2)[C@@H](C(C)C)NC(=O)[C@H]2N=C(O[C@@H]2C)[C@H]([C@@H](C)CC)NC(=O)c2csc(n2)[C@@H](C(C)C)NC(=O)[C@@H]2COC1=N2 [PATELLAMIDE A],IC50,KB,3 µg/mL
same,Activity,L1210 [5],150 Zone units
same,Activity,MC-38 [6],160 Zone units
same,Activity,[7],0 Zone units
CC[C@H](C)[C@@H]1NC(=O)c2csc(n2)[C@@H](C)NC(=O)[C@H]2N=C(O[C@@H]2C)[C@H](CC(C)C)NC(=O)c2csc(n2)[C@@H](Cc2ccccc2)NC(=O)[C@H]2N=C1O[C@@H]2C [PATELLAMIDE B],IC50,KB,> 4 µg/mL
same,Activity,L1210 [5],50 Zone units
same,Activity,MC-38 [6],150 Zone units
same,Activity,[7],0 Zone units
CC[C@H](C)[C@@H]1NC(=O)c2csc(n2)[C@@H](C)NC(=O)[C@H]2N=C(O[C@@H]2C)[C@H](C(C)C)NC(=O)c2csc(n2)[C@@H](Cc2ccccc2)NC(=O)[C@H]2N=C1O[C@@H]2C [PATELLAMIDE C],IC50,KB,6 µg/mL
same,Activity,L1210 [8],260 Zone units
same,Activity,MC-38 [9],170 Zone units
same,Activity,[10],0 Zone units
CCC(C)OC(=O)C1(C)CCC(C)CC(O)C(C)C(=O)C(C)/C=C\CC(C)C(O)C(O)C(OC)/C(C)=C/C=C/C(C)C(C(C)(O)/C=C(/C)Cc2csc(C3(C)OC3C)n2)OC1=O (centres undefined) [PATELLAZOLE A],IC50,KB,0.01 µg/mL
same,Activity,L1210 [11],240 Zone units
same,Activity,MC-38 [12],320 Zone units
same,Activity,[13],370 Zone units
COC1/C(C)=C/C=C/C(C)C(C(C)(O)/C=C(/C)Cc2csc(C3(C)OC3C)n2)OC(=O)C(C)(C(=O)OC(C)C(C)O)CCC(C)CC(O)C(C)C(=O)C(C)/C=C\CC(C)C(O)C1O (centres undefined) [PATELLAZOLE B],IC50,KB,0.0003 µg/mL
same,Activity,L1210 [11],300 Zone units
same,Activity,MC-38 [12],460 Zone units
same,Activity,[13],460 Zone units
CC(C)C[C@H]1NC(=O)[C@H]2N=C(O[C@@H]2C)[C@H]2CSSC[C@@H](NC(=O)c3csc1n3)C1=N[C@H](C(=O)N[C@H](Cc3ccccc3)c3nc(cs3)C(=O)N2)[C@@H](C)O1 [ULITHIACYCLAMIDE B],IC50,KB,0.017 µg/mL
same,Activity,L1210 [14],270 Zone units
same,Activity,MC-38 [15],290 Zone units
same,Activity,[16],280 Zone units
CC(C)C[C@H]1NC(=O)[C@H]2N=C(O[C@@H]2C)[C@H]2CSSC[C@@H](NC(=O)c3csc1n3)C1=N[C@H](C(=O)N[C@H](CC(C)C)c3nc(cs3)C(=O)N2)[C@@H](C)O1 [ULITHIACYCLAMIDE],IC50,KB,0.035 µg/mL

# — ChEMBL document CHEMBL1147292, “The structure of ulithiacyclamide B. Antitumor evaluation of cyclic peptides and macrolides from Lissoclinum patella” (J Nat Prod, 1989)
